{
  "source": "paper PMC6591010",
  "about": "(Molecular cell, 2019)",
  "key": {"Ct Smc4hd–Brn1C": {"target": "Ct Smc4hd–Brn1C (Thermochaetoides thermophila, UniProt G0S2G2, DEL467-1366/Q421L)", "sequence (G0S2G2 264-466 Q421L)": "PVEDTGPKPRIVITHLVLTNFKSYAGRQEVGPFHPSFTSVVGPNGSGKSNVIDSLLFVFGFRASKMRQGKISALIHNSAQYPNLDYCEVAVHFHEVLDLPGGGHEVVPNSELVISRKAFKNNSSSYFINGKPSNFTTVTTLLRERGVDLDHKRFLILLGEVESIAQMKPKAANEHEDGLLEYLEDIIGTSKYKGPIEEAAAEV", "sequence (G0S2G2 1367-1542, stated change not applied)": "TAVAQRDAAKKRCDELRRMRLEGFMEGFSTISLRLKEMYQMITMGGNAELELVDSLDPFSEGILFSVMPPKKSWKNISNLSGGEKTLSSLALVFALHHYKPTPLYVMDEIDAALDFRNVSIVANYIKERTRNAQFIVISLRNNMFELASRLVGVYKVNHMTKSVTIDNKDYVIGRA", "sequence (G0SBJ6 765-898 partner)": "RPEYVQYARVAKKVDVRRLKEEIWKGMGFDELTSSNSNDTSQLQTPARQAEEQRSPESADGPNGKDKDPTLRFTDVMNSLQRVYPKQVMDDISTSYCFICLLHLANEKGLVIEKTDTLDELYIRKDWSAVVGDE", "assay": "biochemical"}, "Sc condensin holocomplex": {"target": "Sc condensin holocomplex (Saccharomyces cerevisiae, UniProt P38989+Q12267)", "conditions": "with or without DNA"}},
  "data": [
    {"smiles": "Nc1ncnc2c1ncn2[C@@H]1O[C@H](COP(=O)(O)OP(=O)(O)OP(=O)(O)O)[C@@H](O)[C@H]1O", "note": "[ATP]", "values": [
      {"measurement": "Kd", "setting": "Ct Smc4hd–Brn1C", "value": 18.4, "unit": "µM"},
      {"measurement": "ATP hydrolysis assay", "setting": "Sc condensin holocomplex", "value": "basal and DNA-stimulated ATPase activities of condensin holocomplexes"}
    ]}
  ]
}
